Common to all, as to conditions: time 25-30 min
The target in assay [1] is Human immunodeficiency virus type 1 reverse transcriptase (Human immunodeficiency virus 1) (UniProt Q72547). Nature of the assay: Inhibition of HIV-1 reverse transcriptase using 5'-Cy5CAGGAAACAGCTATGAC/3'-GTCCTTTGTCGATACTGTTTTTTT-5' as primer/template at 1 mM preincubated for 20 min followed by dATP addition measured after 5 to 10 mins by gel electrophoresis analysis.
Assay [2] has the same target. Nature of the assay: Inhibition of HIV-1 reverse transcriptase using 5'-Cy5CAGGAAACAGCTATGAC/3'-GTCCTTTGTCGATACTGTTTTTTT-5' as primer/template at 10 mM preincubated for 20 min followed by dATP addition measured after 5 to 10 mins by gel electrophoresis analysis.
Assay [3] has the same target. Nature of the assay: Inhibition of HIV-1 reverse transcriptase using 5'-Cy5CAGGAAACAGCTATGAC/3'-GTCCTTTGTCGATACTGTTTTTTT-5' as primer/template at 5 mM preincubated for 20 min followed by dATP addition measured after 5 to 10 mins by gel electrophoresis analysis.

Calls of active or inactive are those of the source. The rule behind the calls is not given here.

As for `Nc1ncnc2c1ncn2CCN[C@H](CP(=O)(O)O)C(=O)O`, the inhibition result in assay [1] and in assay [2] was “inactive” in each case.

In the case of `C[C@H](Cn1cnc2c(N)ncnc21)N(CCP(=O)(O)O)CC(=O)O`, the inhibition result in assay [1] is “inactive”. The inhibition result in assay [3] and in assay [2] was “Active” each time.

Turning to `Nc1ncnc2c1ncn2CCN[C@@H](CP(=O)(O)O)C(=O)O`, the inhibition entry in assay [1] and in assay [2] was “inactive” in each case.

With `Nc1ncnc2c1ncn2CCOC(CP(=O)(O)O)C(=O)O` (racemic), in assay [1], the inhibition entry is “inactive”. The inhibition entry in assay [3] and in assay [2] was “Active” each time.

For `Nc1ncnc2c1ncn2CCCN[C@H](CP(=O)(O)O)C(=O)O`, in assay [1], the inhibition result is “inactive”. Besides, the inhibition entry in assay [3] and in assay [2] was “Active” throughout.

Consider `Nc1ncnc2c1ncn2CCN[C@@H](CO)C(=O)NP(=O)(O)O`, for which the inhibition entry in assay [1] was “inactive”. The inhibition entry in assay [3] and in assay [2] was “Active” in each case.

With `Nc1ncnc2c1ncn2CCCOC(CP(=O)(O)O)C(=O)O` (centres undefined), in assay [1], the inhibition result was “inactive”. The inhibition result in assay [3] and in assay [2] was “Active” throughout.
